Source: article PMC12434521, “Characterization of Next-Generation Inhibitors for the Inward-Rectifier Potassium Channel Kir2.1: Discovery of VU6080824” (ACS Medicinal Chemistry Letters, 2025)
Where two headings read alike, the source gives them in different places.

Tests used:
Kir2.3 = target: T1, Kir2.3 (Homo sapiens, UniProt P48050); test: Kir2.3 manual patch clamp (MPC); format: cell-based
T1 construct: expressed in transfected cells
T1 sequence (P48050 1-445): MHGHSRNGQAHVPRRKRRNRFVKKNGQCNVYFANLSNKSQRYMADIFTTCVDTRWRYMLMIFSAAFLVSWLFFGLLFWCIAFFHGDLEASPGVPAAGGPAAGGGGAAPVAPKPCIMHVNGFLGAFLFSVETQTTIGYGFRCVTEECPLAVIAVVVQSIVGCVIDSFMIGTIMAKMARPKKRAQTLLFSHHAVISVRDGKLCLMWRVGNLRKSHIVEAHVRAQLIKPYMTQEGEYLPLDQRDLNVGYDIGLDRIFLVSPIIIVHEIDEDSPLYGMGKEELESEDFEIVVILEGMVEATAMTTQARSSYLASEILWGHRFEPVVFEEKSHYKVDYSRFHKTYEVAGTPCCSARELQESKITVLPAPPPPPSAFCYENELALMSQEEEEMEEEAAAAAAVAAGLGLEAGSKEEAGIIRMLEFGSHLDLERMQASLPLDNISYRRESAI
Protocol: (§1) Manual Patch Claim Assay Experimental Conditions
(§2) Whole-cell patch-clamp electrophysiology was used to record K ir2.1 currents from a stably transfected monoclonal T-Rex-HEK-293 cell line with a tetracycline-inducible promoter expressing human Kir2.1, as described previously1 cultured in a 5% CO2 incubator at 37°C. Kir2.1 expression was induced by overnight treatment with 1 µg/mL tetracycline. Cells were dissociated using 0.25% Trypsin-EDTA and seeded onto 12 mm circular coverslips (Electron Microscopy Sciences, PA, USA) for same-day whole-cell patch-clamp recordings. Kir2.1 currents were recorded at room temperature using an AxoPatch 200B amplifier with Clampex 10.7 software (Molecular Devices, USA). The voltage-clamp protocol consisted of a 1-s step to -120 mV from a -80 mV holding potential, followed by a 2-s ramp to +40 mV, repeated every 10 s. Data were sampled at 5 kHz and filtered at 1 kHz. Patch pipettes, pulled from 1.5 mm OD thin-walled capillaries (Warner Instruments, MA, USA) using a Sutter P-1000 puller (Sutter Instrument, CA, USA), had resistances of 2–3 MΩ when filled with intracellular solution containing (mM): 135 KCl, 10 HEPES, 1 EGTA, 2 MgCl2, 2 Na2ATP (pH 7.35, adjusted with KOH). The extracellular solution contained (mM): 135 NaCl, 5 KCl, 2 CaCl2, 1 MgCl2, 5 Glucose, 10 HEPES, 10 Sucrose (pH 7.35, adjusted with NaOH). After establishing stable baseline Kir2.1 currents, cells were perfused with compounds at concentrations of 0.03–30 µM until response saturation (within minutes).
(§3) Recordings concluded with a 2 mM Ba2+ solution to isolate Ba2+-sensitive currents, with compound responses expressed as fractions of this current. Current amplitudes at the -120 mV step were analyzed using Clampfit 11.2 (Molecular Devices). IC50 values were calculated by fitting the Hill equation to concentration-response curves (CRCs) using variable -slope nonlinear regression in GraphPad Prism 10.4 (GraphPad Software).
(§4) MPC experiments for Kir2.2 and Kir2.3 were conducted in an analogous fashion.1

Kir4.1 [1] = target: T2, Kir4.1 (Homo sapiens, UniProt P78508); test: Kir4.1 thallium flux assay; format: cell-based; conditions: selective up to 10 μM
T2 sequence (P78508 1-379): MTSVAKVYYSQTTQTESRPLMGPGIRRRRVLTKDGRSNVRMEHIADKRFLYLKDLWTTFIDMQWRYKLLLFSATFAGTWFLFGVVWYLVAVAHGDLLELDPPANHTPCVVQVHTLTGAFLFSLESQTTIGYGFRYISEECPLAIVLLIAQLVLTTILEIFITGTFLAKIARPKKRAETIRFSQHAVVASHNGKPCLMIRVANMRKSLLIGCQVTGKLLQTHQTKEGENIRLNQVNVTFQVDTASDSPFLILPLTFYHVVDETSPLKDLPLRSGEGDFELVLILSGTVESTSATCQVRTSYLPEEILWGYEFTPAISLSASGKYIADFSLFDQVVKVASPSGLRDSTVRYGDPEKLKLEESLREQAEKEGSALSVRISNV

Kir2.2 = target: T3, Kir2.2 (Homo sapiens, UniProt Q14500); test: Kir2.2 manual patch clamp (MPC); format: cell-based
T3 construct: expressed in transfected cells
T3 sequence (Q14500 1-433): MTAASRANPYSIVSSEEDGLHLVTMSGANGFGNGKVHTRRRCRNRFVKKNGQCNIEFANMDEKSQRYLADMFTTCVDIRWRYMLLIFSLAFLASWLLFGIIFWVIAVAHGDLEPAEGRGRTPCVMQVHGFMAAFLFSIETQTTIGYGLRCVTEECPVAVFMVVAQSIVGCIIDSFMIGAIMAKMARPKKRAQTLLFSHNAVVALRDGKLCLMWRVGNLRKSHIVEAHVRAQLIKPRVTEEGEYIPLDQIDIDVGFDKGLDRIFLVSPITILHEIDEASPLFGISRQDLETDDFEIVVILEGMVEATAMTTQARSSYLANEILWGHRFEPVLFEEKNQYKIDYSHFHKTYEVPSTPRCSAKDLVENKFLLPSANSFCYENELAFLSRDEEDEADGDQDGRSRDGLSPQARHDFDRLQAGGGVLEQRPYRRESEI
Protocol: as §1, §2, §3, §4

Kir4.1 [2] = target: T2, Kir4.1; design: method as in PMID 21615117; conditions: cited from earlier work
Kir7.1 = test system: Kir7.1; design: method as in PMID 21615117; conditions: cited from earlier work
human Kir2.1 = target: T4, human Kir2.1 (Homo sapiens, UniProt P63252); design: method as in PMID 21615117; conditions: pH 7.4; read-out: Kir2.1 manual patch clamp IC50 (original report); cited from earlier work
T4 construct: expressed in transfected cells
T4 sequence (P63252 1-427): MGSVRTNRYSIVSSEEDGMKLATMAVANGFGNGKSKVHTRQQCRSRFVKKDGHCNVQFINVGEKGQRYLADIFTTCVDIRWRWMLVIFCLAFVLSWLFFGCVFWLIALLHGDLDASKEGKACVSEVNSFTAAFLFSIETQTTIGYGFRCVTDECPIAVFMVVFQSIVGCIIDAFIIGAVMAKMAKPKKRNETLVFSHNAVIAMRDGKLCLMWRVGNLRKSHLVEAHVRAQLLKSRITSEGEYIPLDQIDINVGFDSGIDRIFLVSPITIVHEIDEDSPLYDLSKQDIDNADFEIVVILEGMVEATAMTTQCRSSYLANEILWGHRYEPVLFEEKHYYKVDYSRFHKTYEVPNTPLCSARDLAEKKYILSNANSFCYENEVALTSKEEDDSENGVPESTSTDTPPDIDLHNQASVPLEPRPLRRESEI

Row | Kir2.1/Kir2.3 Selectivity (MPC) (Kir2.3) | Kir2.1/Kir2.2 Selectivity (MPC) (Kir2.2) | SMILES | also measured
1 | 2.5 fold | 2.1 fold | COc1ccc(CNCc2ccc(-c3cccc(OC)c3)cc2)cc1 [Compound 5s, 1-(3′-Methoxy-[1,1’-biphenyl]-4-yl)-N-(4-methoxybenzyl)methanamine] | IC50 (Kir2.3): 860 nM; Kir2.1/Kir2.3 Selectivity (MPC) (Kir2.3; listed as VU6080824): approximately 2 fold; IC50 (Kir4.1 [1]): > 10000 nM; IC50 (Kir2.2): 750 nM; Kir2.1/Kir2.2 Selectivity (MPC) (Kir2.2; listed as VU6080824): approximately 2 fold
2 | 1.8 fold | 1.4 fold | [2H]C([2H])([2H])Oc1ccc(CNCc2ccc(-c3cccc(OC)c3)cc2)cc1 [Compound 9] | 
3 | 2.4 fold | 3.2 fold | [2H]C([2H])([2H])Oc1ccc(CNCc2ccc(-c3cccc(OC([2H])([2H])[2H])c3)cc2)cc1 [Compound 13] | 
4 | 1.3 fold | 0.73 fold | [2H]C([2H])([2H])Oc1cccc(-c2ccc(CNCc3ccc(OC)cc3)cc2)c1 [Compound 11] | 
5 |  |  | COc1ccc(CNCc2cccc3ccccc23)cc1 [ML133, N-(4-methoxybenzyl)-1-(naphthalen-1-yl)methanamine, reference compound] | IC50 (Kir4.1 [2]): > 30000 nM; IC50 (Kir7.1): > 30000 nM; IC50 (human Kir2.1): 1800 nM
